The structures appear in SMILES notation. pIC50: −log10 of the molar value.

Chain of Recombinant full length human PFKFB3 (Q16875 whole entry): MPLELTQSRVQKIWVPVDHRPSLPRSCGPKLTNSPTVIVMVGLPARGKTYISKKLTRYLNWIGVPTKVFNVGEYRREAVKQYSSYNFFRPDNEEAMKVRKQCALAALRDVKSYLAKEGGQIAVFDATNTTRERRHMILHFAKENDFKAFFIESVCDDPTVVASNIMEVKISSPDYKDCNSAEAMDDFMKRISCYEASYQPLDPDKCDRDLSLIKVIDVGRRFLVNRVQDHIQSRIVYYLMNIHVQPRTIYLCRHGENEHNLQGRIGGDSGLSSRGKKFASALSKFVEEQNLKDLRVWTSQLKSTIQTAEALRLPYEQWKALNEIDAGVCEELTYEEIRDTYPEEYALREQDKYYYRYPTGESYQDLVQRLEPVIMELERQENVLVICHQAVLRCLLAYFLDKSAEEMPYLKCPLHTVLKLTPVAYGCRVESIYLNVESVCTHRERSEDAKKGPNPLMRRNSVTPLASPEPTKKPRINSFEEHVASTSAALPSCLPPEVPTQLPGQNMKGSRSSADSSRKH

The test addresses Recombinant full length human PFKFB3 (Homo sapiens, UniProt Q16875). Description: PFKFB3 kinase activity assay (ADP production, ADP-Glo). (ADP-Glo turns the ADP formed in a reaction into a luminescent signal.)
Protocol: Recombinant full length human PFKFB3 (or PFKFB4) protein purified from Sf9 baculoviral system was acquired from SignalChem (Cat. #P323-30G or P324-30G). ATP, Fructose-6-Phosphate and other chemicals were from Sigma-Aldrich. The kinase activity of the PFKFB3 (PFKFB4) protein was detected by measuring production of ADP from ATP in the presence of the Fructose-6-Phosphate substrate. The kinase reactions were assembled in 384 well plates in a total volume of 25 μL. Test compounds were serially diluted in DMSO. Reactions were set up by first mixing test compounds with enzyme and pre-incubating for 15 min. The ATP and Fructose-6-Phosphate substrates were next added to initiate the kinase reactions.
The compounds of invention listed below in this example were tested at various concentrations (which also added 1% DMSO from compounds, to the final solution) as described below. The kinase reactions were allowed to proceed for 1 h at room temperature. Aliquots of the reaction mixtures (5 μL) were transferred to fresh white 384 well plates and mixed with 5 μL of the ADP-Glo reagent (Promega), followed by incubation for 30 min. The luminescent Kinase Detection reagent was added (10 μL) and, following additional incubation for 15 min, the plates were read on luminescence plate reader (Analyst HT). Positive (100%-inhibition) and negative (0%-inhibition) control samples were assembled in each assay plate and were used to calculate percent inhibition values of test compounds. All experiments were performed in duplicate.
For orientation: pIC50 means −log10 of the IC50, conventionally taken in molar units. Consider `NC(COC(=O)c1ccc(-c2ccccc2)cc1N1C(=O)c2ccc(-c3c[nH]nn3)cc2C1=O)C(=O)O` (stereo in doubt) [Compound 73, 3-[1,3-Dioxo-5-(1H-[1,2,3]triazol-4-yl)-1,3-dihydroisoindol-2-yl]biphenyl-4-carboxylic acid (2S)-2-amino-2-carboxy-ethyl ester], for which the pIC50 is 5.30 to 5.70.

As to `O=C(OCCN1CCCC1)c1ccc(-c2ccccc2)cc1N1C(=O)c2ccc(-c3c[nH]nn3)cc2C1=O` [Compound 68, 3-[1,3-Dioxo-5-(1H-[1,2,3]triazol-4-yl)-1,3-dihydroisoindol-2-yl]biphenyl-4-carboxylic acid 2-pyrrolidin-1-yl-ethyl ester], the pIC50 was 5.30 to 5.70.

Take `COCCOC(=O)c1ccc(-c2ccccc2)cc1N1C(=O)c2ccc(-c3c[nH]nn3)cc2C1=O` [Compound 69, 3-[1,3-Dioxo-5-(1H-[1,2,3]triazol-4-yl)-1,3-dihydroisoindol-2-yl]biphenyl-4-carboxylic acid 2-methoxy-ethyl ester]: the pIC50 was 5.30 to 5.70.

For the molecule `O=C(OCC(O)CO)c1ccc(-c2ccccc2)cc1N1C(=O)c2ccc(-c3c[nH]nn3)cc2C1=O` (stereo not drawn) [Compound 70, 3-[1,3-Dioxo-5-(1H-[1,2,3]triazol-4-yl)-1,3-dihydroisoindol-2-yl]biphenyl-4-carboxylic acid 2,3-dihydroxy-propyl ester], the pIC50 was 4.70 to 5.30.

As to `O=C(O)c1cc(-c2cn[nH]c2)ccc1N1C(=O)c2ccc(-c3c[nH]nn3)cc2C1=O` [Compound 71, 2-[1,3-Dioxo-5-(1H-[1,2,3]triazol-4-yl)-1,3-dihydroisoindol-2-yl]-5-(1H-pyrazol-4-yl)-benzoic Acid], the pIC50 was 5.70 to 6.30.

On to `NCCOC(=O)c1ccc(-c2ccccc2)cc1N1C(=O)c2ccc(-c3c[nH]nn3)cc2C1=O` [Compound 72, 3-[1,3-Dioxo-5-(1H-[1,2,3]triazol-4-yl)-1,3-dihydroisoindol-2-yl]biphenyl-4-carboxylic Acid 2-amino-ethyl ester], for which the pIC50 is over 4.70.

Regarding `CC(C)[C@H](N)C(=O)OCCOC(=O)c1ccc(-c2ccccc2)cc1N1C(=O)c2ccc(-c3c[nH]nn3)cc2C1=O` [Compound 74, 3-[1,3-Dioxo-5-(1H-[1,2,3]triazol-4-yl)-1,3-dihydroisoindol-2-yl]biphenyl-4-carboxylic acid 2-{[(2S)-2-amino-3-methylbutanoyl]oxy}ethyl ester], the pIC50 is over 4.70.

With `O=C(O)c1ccc2c(c1)C(=O)N(c1ccc(-c3c[nH]cn3)cc1C(=O)O)C2=O` [Compound 75, 2-[2-Carboxy-4-(1H-imidazol-4-yl)-phenyl]-1,3-dioxo-2,3-dihydro-1H-isoindole-5-carboxylic Acid], the pIC50 was over 6.30.

For the molecule `Cn1cncc1-c1ccc(N2C(=O)c3ccc(C(=O)O)cc3C2=O)c(C(=O)O)c1` [Compound 76, 2-[2-Carboxy-4-(3-methyl-3H-imidazol-4-yl)-phenyl]-1,3-dioxo-2,3-dihydro-1H-isoindole-5-carboxylic Acid], the pIC50 is over 6.30.

`CNCCOC(=O)c1cc(-c2c[nH]cn2)ccc1N1C(=O)c2ccc(C(=O)O)cc2C1=O` [Compound 77, 2-[4-(1H-Imidazol-4-yl)-2-(2-methylaminoethoxycarbonyl)-phenyl]-1,3-dioxo-2,3-dihydro-1H-isoindole-5-carboxylic Acid]: the pIC50 is 5.70 to 6.30.

With `CN(C)CCOC(=O)c1cc(-c2ccccc2)ccc1N1C(=O)c2ccc(-c3c[nH]nn3)cc2C1=O` [Compound 78, 4-[1,3-Dioxo-5-(1H-[1,2,3]triazol-4-yl)-1,3-dihydroisoindol-2-yl]biphenyl-3-carboxylic acid 2-dimethylamino-ethyl ester], the pIC50 was 4.70 to 5.30.

Regarding `O=C(OCCN1CCCC1)c1cc(-c2ccccc2)ccc1N1C(=O)c2ccc(-c3c[nH]nn3)cc2C1=O` [Compound 79, 4-[1,3-Dioxo-5-(1H-[1,2,3]triazol-4-yl)-1,3-dihydroisoindol-2-yl]biphenyl-3-carboxylic acid 2-pyrrolidin-1-yl-ethyl ester], the pIC50 is 4.70 to 5.30.

With `O=C(OCCN1CCOCC1)c1cc(-c2ccccc2)ccc1N1C(=O)c2ccc(-c3c[nH]nn3)cc2C1=O` [Compound 80, 4-[1,3-Dioxo-5-(1H-[1,2,3]triazol-4-yl)-1,3-dihydroisoindol-2-yl]biphenyl-3-carboxylic acid 2-morpholin-4-yl-ethyl ester], the pIC50 was over 4.70.

Regarding `CNCCOC(=O)c1cc(-c2ccccc2)ccc1N1C(=O)c2ccc(-c3c[nH]nn3)cc2C1=O` [Compound 81, 4-[1,3-Dioxo-5-(1H-[1,2,3]triazol-4-yl)-1,3-dihydroisoindol-2-yl]biphenyl-3-carboxylic acid 2-methylamino-ethyl ester], the pIC50 is over 4.70.

Take `O=C1c2ccc(-c3c[nH]nn3)cc2C(=O)N1c1cc(-c2ccccc2)cnc1O` [Compound 83, 2-(2-Hydroxy-5-phenylpyridin-3-yl)-5-(1H-[1,2,3]triazol-4-yl)-isoindole-1,3-dione]: the pIC50 was 5.30 to 5.70.

In the case of `O=C1c2ccc(-c3c[nH]nn3)cc2C(=O)N1c1cc(-c2ccccc2)ccn1` [Compound 84, 2-(4-Phenylpyridin-2-yl)-5-(1H-[1,2,3]triazol-4-yl)-isoindole-1,3-dione], the pIC50 is 4.70 to 5.30.

With `O=C1c2ccc(-c3c[nH]nn3)cc2C(=O)N1c1cc(-c2ccccc2)cc[n+]1[O-]` [Compound 85, 2-{1,3-Dioxo-5-(1H-[1,2,3]triazol-4-yl)-2,3-dihydro-1H-isoindol-2-yl}-4-phenylpyridine N-oxide], the pIC50 was 4.70 to 5.30.

With `O=C1c2ccc(-c3c[nH]nn3)cc2C(=O)N1c1ccc(-c2ccccc2)cn1` [Compound 86, 2-(5-Phenylpyridin-2-yl)-5-(1H-[1,2,3]triazol-4-yl)-isoindole-1,3-dione], the pIC50 was over 4.70.

For the molecule `O=C1c2ccc(-c3c[nH]nn3)cc2C(=O)N1c1cc(-c2ccc(F)cc2)ccn1` [Compound 87, 2-[4-(4-Fluorophenyl)-pyridin-2-yl]-5-(1H-[1,2,3]triazol-4-yl)-isoindole-1,3-dione], the pIC50 is 4.70 to 5.30.

In the case of `Cc1cc(-c2ccccc2)cc(N2C(=O)c3ccc(-c4c[nH]nn4)cc3C2=O)n1` [Compound 88, 2-(6-Methyl-4-phenylpyridin-2-yl)-5-(1H-[1,2,3]triazol-4-yl)-isoindole-1,3-dione], the pIC50 is 4.70 to 5.30.

In the case of `O=C1c2ccc(-c3c[nH]nn3)cc2C(=O)N1c1ccc(-c2ccccc2)nc1O` [Compound 89, 2-(2-Hydroxy-6-phenylpyridin-3-yl)-5-(1H-[1,2,3]triazol-4-yl)-isoindole-1,3-dione], the pIC50 was over 4.70.

Regarding `Cc1cnc(N2C(=O)c3ccc(-c4c[nH]nn4)cc3C2=O)cc1-c1ccc(F)cc1F` [Compound 90, 2-[4-(2,4-Difluoro-phenyl)-5-methyl-pyridin-2-yl]-5-(1H-[1,2,3]triazol-4-yl)-isoindole-1,3-dione], the pIC50 was 5.30 to 5.70.

Consider `COC(=O)c1ccc(-c2ccccc2)cc1N1Cc2ccc(-c3c[nH]nn3)cc2C1=O` [Compound 91, 3-[1-Oxo-6-(1H-[1,2,3]triazol-4-yl)-1,3-dihydroisoindol-2-yl]biphenyl-4-carboxylic acid methyl ester], for which the pIC50 was over 4.70.

As for `O=C(O)c1ccc(-c2ccccc2)cc1N1Cc2ccc(-c3c[nH]nn3)cc2C1=O` [Compound 92, 3-[1-Oxo-6-(1H-[1,2,3]triazol-4-yl)-1,3-dihydroisoindol-2-yl]biphenyl-4-carboxylic Acid], the pIC50 was 5.30 to 5.70.

Take `NC(=O)c1ccc(-c2ccccc2)cc1N1C(=O)c2ccc(-c3c[nH]nn3)cc2C1=O` [Compound 93, 3-[1,3-Dioxo-5-(1H-[1,2,3]triazol-4-yl)-1,3-dihydroisoindol-2-yl]biphenyl-4-carboxylic acid amide]: the pIC50 is 4.70 to 5.30.

For `O=C(O)c1cc(-c2ccccc2)ccc1N1C(=O)c2ccc(-c3nnn[nH]3)cc2C1=O` [Compound 94, 4-[1,3-Dioxo-5-(1H-tetrazol-5-yl)-1,3-dihydroisoindol-2-yl]biphenyl-3-carboxylic Acid], the pIC50 was over 6.30.

With `O=C(O)c1ccc(-c2ccccc2)cc1N1C(=O)c2ccc(-c3nnn[nH]3)cc2C1=O` [Compound 95, 3-[1,3-Dioxo-5-(1H-tetrazol-5-yl)-1,3-dihydroisoindol-2-yl]biphenyl-4-carboxylic Acid], the pIC50 was over 6.30.

As to `CC(C)OC(=O)c1ccc(-c2ccccc2)cc1N1C(=O)c2ccc(-c3nnn[nH]3)cc2C1=O` [Compound 96, 3-[1,3-Dioxo-5-(1H-tetrazol-5-yl)-1,3-dihydroisoindol-2-yl]biphenyl-4-carboxylic acid isopropyl ester], the pIC50 is 4.70 to 5.30.

On to `CN(C)CCOC(=O)c1ccc(-c2ccccc2)cc1N1C(=O)c2ccc(-c3nnn[nH]3)cc2C1=O` [Compound 97, 3-[1,3-Dioxo-5-(1H-tetrazol-5-yl)-1,3-dihydroisoindol-2-yl]biphenyl-4-carboxylic acid 2-dimethylamino-ethyl ester], for which the pIC50 was over 6.30.

For the molecule `NC(=O)c1ccc(-c2ccccc2)cc1N1C(=O)c2ccc(-c3nnn[nH]3)cc2C1=O` [Compound 98, 3-[1,3-Dioxo-5-(1H-tetrazol-5-yl)-1,3-dihydroisoindol-2-yl]biphenyl-4-carboxylic acid amide], the pIC50 was 5.30 to 5.70.

Take `COC(=O)c1ccc(-c2ccc(F)c(F)c2)cc1N1Cc2ccc(-c3nnn[nH]3)cc2C1=O` [Compound 99, 3′,4′-Difluoro-3-[1-oxo-6-(1H-tetrazol-5-yl)-1,3-dihydroisoindol-2-yl]biphenyl-4-carboxylic acid methyl ester]: the pIC50 was 4.70 to 5.30.

Regarding `O=C(O)c1ccc(-c2ccc(F)c(F)c2)cc1N1Cc2ccc(-c3nnn[nH]3)cc2C1=O` [Compound 100, 3′,4′-Difluoro-3-[1-oxo-6-(1H-tetrazol-5-yl)-1,3-dihydroisoindol-2-yl]biphenyl-4-carboxylic Acid], the pIC50 is 5.70 to 6.30.

`NC(=O)c1ccc(-c2ccc(F)c(F)c2)cc1N1Cc2ccc(-c3nnn[nH]3)cc2C1=O` [Compound 101, 3′,4′-Difluoro-3-[1-oxo-6-(1H-tetrazol-5-yl)-1,3-dihydroisoindol-2-yl]biphenyl-4-carboxylic acid amide]: the pIC50 was 4.70 to 5.30.

The values are drawn from patent US20230047816A1 (priority 2018, published 2023).
